In US12371459B2, “Antimicrobial peptide derived from Pseudin-2 peptide and uses thereof” (INDUSTRY-ACADEMIC COOPERATION FOUNDATION, CHOSUN UNIVERSITY, priority 2019, dated 2025):
Where “and” joins values, the source holds several entries; their conditions need not be identical. Equal entries are not always repeated. Ends that are not written are not given here.

Experiments:
[1] = Cytotoxicity in normal cell line (MTT); conditions: human, HaCaT keratinocyte cells
Procedure: To determine the cytotoxicity of the peptides produced by the method of Example 1 in normal cell line, cytotoxicity was measured by using human keratinocyte cell line (HaCaT cell line, Dr. N E. Fusenig, Heidelberg, Germany).
Specifically, HaCaT cells, which have been cultured in DMEM medium containing 10% FBS (fetal bovine serum), were aliquoted in a microtiter plate to have 2×10^5 cells per well. […] Twenty-four hours later, a reaction solution containing 0.5 mg/ml MTT (thiazolyl blue tetrazolium bromide) dissolved in phosphate buffered saline (PBS) was added in an amount of 100 μl to each well and the reaction was allowed to occur for 4 hours. After that, the supernatant was discarded, and, by dissolving MTT crystals that are formed by adding 200 μl DMSO (dimethyl sulfoxide), the absorbance at 560 nm was measured to determine the cell survival ability.

[2] = tested on: erythrocytes of a mouse (Balb/c); test: Erythrocyte hemolytic activity; conditions: 1 hour at 37° C.
Procedure: To compare the cytotoxicity among the peptides that are produced by the method of Example 1, erythrocyte hemolytic activity of the synthesized peptide was measured.
After that, the amount of hemoglobin contained in a supernatant collected by centrifuge at 1,000×g was determined by measuring the absorbance at a wavelength of 414 nm. As a control to be used as a reference for cell disruption level, the supernatant collected by a treatment with 1% Triton X-100 (Sigma, USA) and a reaction for 1 hour at 37° C. was used to measure the absorbance. By setting the resulting absorbance value at 100% of the erythrocyte hemolytic activity, hemolysis of each peptide was calculated using the following equation 1. Erythrocyte disrupting ability (%)=(Absorbance A−Absorbance B)/(Absorbance C−Absorbance B)×100 Equation 1 (in the above equation, Absorbance A indicates the absorbance of a reaction solution treated with each peptide, in which the absorbance is measured at a wavelength of 414 nm; Absorbance B indicates the absorbance of a reaction solution treated with PBS, in which the absorbance is measured at a wavelength of 414 nm; and Absorbance C indicates the absorbance of a reaction solution treated with 1% Triton X-100, in which the absorbance is measured at a wavelength of 414 nm).

plasmid DNA (pRSETB) = test: Binding between antimicrobial peptide and DNA (agarose gel electrophoresis); conditions: plasmid DNA 300 ng, peptide/DNA ratio 0.25:1 to 4:1, 10 minutes at 37° C.
Procedure: Specifically, plasmid DNA (pRSETB, 300 ng) and the peptide were reacted for at different ratio (i.e., peptide/DNA ratio was 0 (DNA only), 0.25:1, 0.5:1, 1:1, 1.5:1, 2:1, 3:1, or 4:1) for 10 minutes at 37° C. After that, electrophoresis was carried out using 1% agarose gel followed by staining with ethidium bromide (EtBr) and UV determination.

[3] = tested on: Escherichia coli CCARM 1229 (tolerance to antibiotics)
Description: (§1) To compare the antimicrobial activity among the peptides produced by the method of Example 1, the inventors of the present invention measured the minimal growth inhibitory concentration (MIC), which is minimum concentration of the peptide not allowing any […] of bacterial cells.
(§2) Specifically, the bacterial strains described in the following Table 2 were purchased and cultured to a mid-log phase in a medium that is appropriate for each strain. […] After the addition to a plate, the cells were cultured for 18 hours at 37° C. […] As a control, Pseudin-2 as a mother peptide was used.

[4] = tested on: Pseudomonas aeruginosa ATCC 27853; conditions: ATCC 27853, 18 h
Description: as §1, §2

[5] = tested on: Pseudomonas aeruginosa isolated strain 4891 (tolerance to antibiotics)
Description: as §1, §2

[6] = tested on: Bacillus subtilis KCTC 1998; conditions: KCTC 1998, 18 h
Description: as §1, §2

[7] = tested on: Salmonella typhimurium KCTC 1926; conditions: KCTC 1926, 18 h
Description: as §1, §2

[8] = tested on: Staphylococcus aureus CCARM 3518 (tolerance to antibiotics)
Description: as §1, §2

[9] = tested on: Trichosporon beigelii KCTC 7707; conditions: KCTC 7707, 18 h
Description: as §1, §2

[10] = tested on: Escherichia coli CCARM 1238 (tolerance to antibiotics)
Description: as §1, §2

[11] = tested on: Escherichia coli ATCC 25922; conditions: ATCC 25922, 18 h
Description: as §1, §2

[12] = tested on: Staphylococcus aureus ATCC 25923; conditions: ATCC 25923, 18 h
Description: as §1, §2

[13] = tested on: Staphylococcus aureus CCARM 3090 (tolerance to antibiotics)
Description: as §1, §2

[14] = tested on: Pseudomonas aeruginosa isolated strain 4007 (tolerance to antibiotics)
Description: as §1, §2

[15] = tested on: Candida albicans KCTC 7270; conditions: KCTC 7270, 18 h
Description: as §1, §2

[16] = tested on: Listeria monocytogenes KCTC 3710; conditions: KCTC 3710, 18 h
Description: as §1, §2

Staphylococcus aureus = test: Flow cytometry, propidium iodide, effect on bacteria membrane; format: cell-based; conditions: peptide at MIC
Procedure: (§3) After that, the supernatant was removed by centrifuge (10,000 rpm) and stained with propidium iodide (PI, concentration of 10 μg/ml) for 30 minutes at 4° C. Thereafter, unbound propidium iodide was removed by centrifuge, and the problem of cell aggregation phenomenon was solved by adding physiological saline (PBS) in an amount of 1 ml.

Escherichia coli = test: as above; format: cell-based; conditions: peptide at MIC
Procedure: as §3

Row | Substance | viability at 24 h, 3.13 µM [1] [%] | viability at 24 h, 6.25 µM [1] [%] | viability at 24 h, 12.5 µM [1] [%] | viability at 24 h, 25 µM [1] [%] | viability at 24 h, 50 µM [1] [%] | viability at 24 h, 100 µM [1] [%] | Erythrocyte disrupting ability ([2]; peptide concentration 3.13 μM) [%] | Erythrocyte disrupting ability ([2]; peptide concentration 6.25 μM) [%] | Erythrocyte disrupting ability ([2]; peptide concentration 12.5 μM) [%] | Erythrocyte disrupting ability ([2]; peptide concentration 25 μM) [%] | Erythrocyte disrupting ability ([2]; peptide concentration 50 μM) [%] | Erythrocyte disrupting ability ([2]; peptide concentration 100 μM) | viability at 24 h, 3.13 µM ([1]; Cell survival ability) [%] | viability at 24 h, 6.25 µM ([1]; Cell survival ability) [%] | viability at 24 h, 12.5 µM ([1]; Cell survival ability) [%] | viability at 24 h, 25 µM ([1]; Cell survival ability) [%] | viability at 24 h, 50 µM ([1]; Cell survival ability) [%] | viability at 24 h, 100 µM ([1]; Cell survival ability) [%] | Minimal inhibitory concentration [3] [µM] | Minimal inhibitory concentration [4] [µM] | other results
1 | GLNALKKVFQGIHEAIKLINNHVQ-NH2 [Pseudin-2] | 100 | 100 | 100 | 100 | 100 | 82.1 | 0 | 0 | 0 | 0 | 3.2 | 10% and 10.1% | – | – | – | – | – | – | – | – | Binding to DNA (plasmid DNA (pRSETB)): did not show any binding to DNA
2 | WLNALKKVFQGIHEAIKLINNHVQ-NH2 [Pse-Anal1] | 80.1 | 35.2 | 26.8 | 15.9 | 13.6 | 1.8 | 50.9 | 58.6 | 68.9 | 82.0 | 93.5 | 100% | – | – | – | – | – | – | – | – | –
3 | GLNALKKVSQGIHESIKLINNHVQ-NH2 [Pse-Anal6] | – | – | – | – | – | – | – | – | – | – | – | – | 100 | 100 | 100 | 100 | 100 | 92.1 | 64 | 16 | Minimal inhibitory concentration [5]: 64 µM; Minimal inhibitory concentration [6]: 32 µM; Minimal inhibitory concentration [7]: 16 µM; Minimal inhibitory concentration [8]: 64 µM; Minimal inhibitory concentration [9]: 64 µM; Minimal inhibitory concentration [10]: 64 µM; Minimal inhibitory concentration [11]: 16 µM; Minimal inhibitory concentration [12]: 32 µM; Minimal inhibitory concentration [13]: 64 µM; Minimal inhibitory concentration [14]: 64 µM; Minimal inhibitory concentration [15]: 64 µM; Minimal inhibitory concentration [16]: 32 µM
4 | WLNALKKVFQGIHEAIKLIWNWVQ-NH2 [Pse-Anal3] | – | – | – | – | – | – | – | – | – | – | – | – | 55.4 | 45.8 | 25.6 | 24.1 | 13.6 | 10.8 | 32 | 16 | Minimal inhibitory concentration [5]: 64 µM; Minimal inhibitory concentration [6]: 32 µM; Minimal inhibitory concentration [7]: 16 µM; Minimal inhibitory concentration [8]: 32 µM; Minimal inhibitory concentration [9]: 32 µM; Minimal inhibitory concentration [10]: 32 µM; Minimal inhibitory concentration [11]: 16 µM; Minimal inhibitory concentration [12]: 32 µM; Minimal inhibitory concentration [13]: 32 µM; Minimal inhibitory concentration [14]: 64 µM; Minimal inhibitory concentration [15]: 32 µM; Minimal inhibitory concentration [16]: 32 µM
5 | GLNALKKVSQGIHEAIKLINNHVQ-NH2 [Pse-Anal5] | 100 | 100 | 100 | 100 | 96.3 | 83.5 | 0 | 0.7 | 2.3 | 5.9 | 11.7 | 20.1% | – | – | – | – | – | – | – | – | –
6 | ALNALKKVSQGIHEAIKLIANHVQ-NH2 [Pse-Anal7] | – | – | – | – | – | – | – | – | – | – | – | – | 100 | 100 | 100 | 100 | 100 | 100 | 16 | 8 | Minimal inhibitory concentration [5]: 32 µM; Minimal inhibitory concentration [6]: 16 µM; Minimal inhibitory concentration [7]: 8 µM; Minimal inhibitory concentration [8]: 32 µM; Minimal inhibitory concentration [9]: 32 µM; Minimal inhibitory concentration [10]: 16 µM; Minimal inhibitory concentration [11]: 8 µM; Minimal inhibitory concentration [12]: 16 µM; Minimal inhibitory concentration [13]: 32 µM; Minimal inhibitory concentration [14]: 32 µM; Minimal inhibitory concentration [15]: 32 µM; Minimal inhibitory concentration [16]: 16 µM
7 | LNALKKVFQGIHEAIKLI-NH2 [Pse-T1] | 100 | 100 | 100 | 100 | 98.8 | 86.2 | 0 | 0 | 0 | 0 | 3.9 | 12.3% | – | – | – | – | – | – | – | – | Membrane disrupting ability compared with Pseudin-2 (Staphylococcus aureus): higher membrane disrupting ability than Pseudin-2; Membrane disrupting ability compared with Pseudin-2 (Escherichia coli): higher membrane disrupting ability than Pseudin-2; Binding to DNA (plasmid DNA (pRSETB)): showed binding to DNA
8 | WLNALKKVFQGIHEAIKLIWNHVQ-NH2 [Pse-Anal2] | – | – | – | – | – | – | – | – | – | – | – | – | 81.3 | 48.1 | 32.2 | 18.8 | 15.7 | 5.1 | 2 | 2 | Minimal inhibitory concentration [5]: 4 µM; Minimal inhibitory concentration [6]: 4 µM; Minimal inhibitory concentration [7]: 2 µM; Minimal inhibitory concentration [8]: 4 µM; Minimal inhibitory concentration [9]: 32 µM; Minimal inhibitory concentration [10]: 2 µM; Minimal inhibitory concentration [11]: 2 µM; Minimal inhibitory concentration [12]: 4 µM; Minimal inhibitory concentration [13]: 4 µM; Minimal inhibitory concentration [14]: 2 µM; Minimal inhibitory concentration [15]: 32 µM; Minimal inhibitory concentration [16]: 8 µM
9 | GLNALKKVFQGIHEAIKKINNHVQ-NH2 [Pse-18L-K] | 100 | 100 | 100 | 100 | 100 | 81.5 | 2.4 | 3.4 | 5.4 | 12.5 | 24.2 | 36.7% | – | – | – | – | – | – | – | – | –
